Results reported in the CheMixHub ionic liquid set.
Where “and” joins values, the source holds several entries; their conditions need not be identical. Identical values can stand only once.

Assay: xn = mol fraction of the nth substance listed

CC(CC(C)(C)C)CP(=O)([O-])CC(C)CC(C)(C)C.CCCCCCCCCCCCCC[P+](CCCCCC)(CCCCCC)CCCCCC + O
100 kPa
Settings	viscosity [mPa·s]
298.15 K, x1 = 0.1299	139
323.15 K, x1 = 0.7943	264

CCCCCCCC(=O)[O-].CCCCCC[NH+](CCCCCC)CCCCCC + O
298.15 K, 101 kPa
Settings	viscosity
x1 = 0.3915	15.08 mPa·s and 15.76 mPa·s
x1 = 0.7748	20.5 mPa·s and 21.52 mPa·s

CCCCCCCCCC[n+]1ccn(C)c1.[Br-] + O
electrical conductivity [S/m], 101 kPa
Settings	296 K	301 K	306 K	311 K	316 K
x1 = 0.0001622	–	–	–	–	0.0606
x1 = 0.0002342	–	–	–	–	0.0892
x1 = 0.0002522	0.0652	–	–	0.0827	–
x1 = 0.0003423	0.0864	–	0.1	0.107	0.117
x1 = 0.0003603	–	0.0919	–	–	–
x1 = 0.0004503	0.102	0.11	0.118	0.131	0.14
x1 = 0.0005763	0.125	0.134	0.141	0.155	0.168
x1 = 0.0007023	0.141	0.152	0.162	0.175	0.191
x1 = 0.0008462	–	0.172	–	–	0.223
x1 = 0.0008642	0.163	–	0.188	0.202	–
x1 = 0.001026	0.176	0.186	0.205	0.221	0.248
x1 = 0.001206	0.195	0.204	0.223	0.243	0.272
x1 = 0.001422	0.205	0.22	0.237	0.254	0.291
x1 = 0.001673	0.216	0.23	0.257	0.271	0.309
x1 = 0.00196	0.234	0.24	0.263	0.28	0.323
x1 = 0.002301	–	–	0.274	0.293	0.34
x1 = 0.002319	–	0.251	–	–	–

298.15 K, 100 kPa, frequency 5e-05 MHz
Settings	electrical conductivity [S/m]
x1 = 0.0003459	0.175
x1 = 0.0003945	0.199
x1 = 0.0004629	0.235
x1 = 0.0004917	0.249
x1 = 0.0005259	0.265
x1 = 0.0005781	0.289
x1 = 0.0006231	0.31
x1 = 0.0006537	0.325
x1 = 0.0006861	0.34
x1 = 0.0007311	0.36
x1 = 0.0007563	0.37
x1 = 0.0007922	0.374
x1 = 0.0009038	0.387
x1 = 0.000938	0.391
x1 = 0.0009775	0.395
x1 = 0.001044	0.403
x1 = 0.001082	0.407
x1 = 0.001118	0.41
x1 = 0.001152	0.414
x1 = 0.001206	0.422

CCCCCC[N+](CC)(CC)CC.O=S(=O)([N-]S(=O)(=O)C(F)(F)F)C(F)(F)F + O
101 kPa, x2 = 0.1627
Settings	viscosity [mPa·s]
293.25 K	79.3
308.05 K	44.04

CCCC[P+](C)(CCCC)CCCC.COS(=O)(=O)[O-] + O
Settings	viscosity [mPa·s]
298.15 K, 100 kPa, x1 = 0.004192	1.135

CCCC[n+]1ccn(C)c1.O=S(=O)([N-]S(=O)(=O)C(F)(F)F)C(F)(F)F + O
Settings	electrical conductivity [S/m]	viscosity [mPa·s]
298 K, 101 kPa, x2 = 0	–	50.4
298 K, 101 kPa, x2 = 0.0227	0.427	–
298 K, 101 kPa, x2 = 0.0272	0.442	–
298 K, 101 kPa, x2 = 0.0915	0.472	–
298 K, 101 kPa, x2 = 0.1024	0.498	–
333.15 K, 100 kPa, x2 = 0.257	–	10.68
343.15 K, 100 kPa, x2 = 0.257	–	8.479
353.15 K, 100 kPa, x2 = 0.257	–	6.903

CCn1cc[n+](C)c1.COCCOCCOS(=O)(=O)[O-] + O
101 kPa
Settings	electrical conductivity [S/m]
298.2 K, x2 = 0.4	0.3
298.2 K, x2 = 0.6	0.51
313.2 K, x2 = 0.2	0.46
313.2 K, x2 = 0.8	1.63
328.2 K, x2 = 0.4	0.92
338.2 K, x2 = 0.2	1.05
338.2 K, x2 = 0.6	1.77
338.2 K, x2 = 0.8	2.97
343.2 K, x2 = 0.8	3.28
348.2 K, x2 = 0.2	1.36
348.2 K, x2 = 0.4	1.51
353.2 K, x2 = 0.6	2.39
353.2 K, x2 = 0.8	3.93

COC[n+]1ccccc1.O=S(=O)([N-]S(=O)(=O)C(F)(F)F)C(F)(F)F + O
101 kPa, x1 = 0.8483
Settings	electrical conductivity [S/m]	viscosity [mPa·s]
298.1 K	–	37.4
298.15 K	0.608	–
303 K	–	30.6
333 K	–	12

CCCC[n+]1ccn(C)c1.F[P-](F)(F)(F)(F)F + O=C1CCCC1
Settings	viscosity [mPa·s]
298.15 K, 101.3 kPa, x2 = 0	270

CCCC[n+]1ccn(C)c1.O=S(=O)([N-]S(=O)(=O)C(F)(F)F)C(F)(F)F + O=C1CCCCCO1
100 kPa, frequency 0.01 MHz, x1 = 1
Settings	electrical conductivity [S/m]
293.15 K	0.337
298.15 K	0.4
303.15 K	0.472
308.15 K	0.552
313.15 K	0.64
318.15 K	0.733
323.15 K	0.835

CCCC[n+]1ccn(C)c1.O=S(=O)([N-]S(=O)(=O)C(F)(F)F)C(F)(F)F + O=C1CCCCO1
100 kPa, frequency 0.01 MHz, x1 = 1
Settings	electrical conductivity [S/m]
298.15 K	0.4
318.15 K	0.733

CCCC[n+]1ccn(C)c1.O=S(=O)([N-]S(=O)(=O)C(F)(F)F)C(F)(F)F + O=C1CCCO1
100 kPa, x2 = 0
Settings	electrical conductivity [S/m]	viscosity [mPa·s]
298.15 K	0.4	50
303.15 K	0.472	41.24

CC[n+]1ccn(C)c1.O=S(=O)([O-])O + O=C1O[C@H]([C@@H](O)CO)C(O)=C1O + O
viscosity [mPa·s], 100 kPa
Settings	293.15 K	298.15 K	303.15 K	308.15 K	313.15 K	318.15 K
x2 = 0, x1 = 0.0009002	1.05	0.94	0.84	0.76	0.69	0.65
x2 = 0, x1 = 0.001799	1.07	0.95	0.85	0.77	0.7	0.64
x2 = 0, x1 = 0.002696	1.08	0.96	0.86	0.78	0.71	0.64
x2 = 0.0002713, x1 = 0.0008999	1.05	0.95	0.84	0.76	0.7	0.65
x2 = 0.0002768, x1 = 0.001798	1.08	0.96	0.86	0.78	0.71	0.65
x2 = 0.000277, x1 = 0.002695	1.09	0.97	0.87	0.78	0.72	0.65
x2 = 0.0005469, x1 = 0.0008997	1.06	0.96	0.85	0.77	0.71	0.66
x2 = 0.0005489, x1 = 0.001798	1.08	0.96	0.87	0.78	0.72	0.66
x2 = 0.0005544, x1 = 0.002694	1.1	0.98	0.88	0.79	0.72	0.66
x2 = 0.0008183, x1 = 0.0008994	1.07	0.96	0.85	0.78	0.71	0.67
x2 = 0.0008262, x1 = 0.001797	1.09	0.97	0.87	0.79	0.72	0.66
x2 = 0.000834, x1 = 0.002693	1.1	0.98	0.88	0.8	0.73	0.67
x2 = 0.00109, x1 = 0.0008992	1.07	0.97	0.86	0.78	0.72	0.67
x2 = 0.0011, x1 = 0.001797	1.09	0.97	0.88	0.8	0.73	0.67
x2 = 0.00111, x1 = 0.002693	1.11	0.99	0.89	0.8	0.73	0.67
x2 = 0.001362, x1 = 0.000899	1.08	0.97	0.86	0.79	0.72	0.68
x2 = 0.001374, x1 = 0.001796	1.1	0.98	0.88	0.8	0.73	0.67
x2 = 0.00139, x1 = 0.002692	1.11	1	0.89	0.81	0.74	0.68
x2 = 0.001633, x1 = 0.0008987	1.09	0.98	0.87	0.79	0.73	0.68
x2 = 0.001648, x1 = 0.001796	1.11	0.98	0.89	0.81	0.74	0.68
x2 = 0.001666, x1 = 0.002691	1.12	1	0.9	0.81	0.75	0.68
x2 = 0.001906, x1 = 0.0008985	1.09	0.98	0.88	0.8	0.73	0.69
x2 = 0.001923, x1 = 0.001795	1.11	0.99	0.9	0.81	0.74	0.68
x2 = 0.001942, x1 = 0.00269	1.12	1.01	0.9	0.82	0.75	0.69
